Laboratory results published in ChEMBL document CHEMBL1155414, “Identification of a urea bioisostere of a triazole oxytocin antagonist” (Bioorg Med Chem Lett, 2010).

Key:
Oxytocin receptor = target: T1, Oxytocin receptor (Homo sapiens, UniProt P30559); experiment: Antagonist activity at human oxytocin receptor expressed in CHO cells by beta lactamase assay; format: functional, cell-based
T1 sequence (P30559 whole entry): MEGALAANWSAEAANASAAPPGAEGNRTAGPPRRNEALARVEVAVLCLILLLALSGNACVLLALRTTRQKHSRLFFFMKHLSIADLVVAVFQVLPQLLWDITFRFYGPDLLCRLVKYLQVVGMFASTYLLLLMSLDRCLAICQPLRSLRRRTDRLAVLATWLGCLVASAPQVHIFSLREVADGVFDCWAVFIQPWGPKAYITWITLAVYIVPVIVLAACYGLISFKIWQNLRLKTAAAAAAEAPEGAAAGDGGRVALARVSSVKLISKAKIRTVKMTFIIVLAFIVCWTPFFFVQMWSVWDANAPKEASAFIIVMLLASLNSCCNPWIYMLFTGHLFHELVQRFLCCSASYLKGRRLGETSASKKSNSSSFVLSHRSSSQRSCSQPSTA

Vasopressin V1a receptor = Vasopressin V1a receptor (Homo sapiens, UniProt P37288); experiment: Antagonist activity at human vasopressin V1A receptor; format: functional
Vasopressin V1a receptor, sequence (P37288 whole entry): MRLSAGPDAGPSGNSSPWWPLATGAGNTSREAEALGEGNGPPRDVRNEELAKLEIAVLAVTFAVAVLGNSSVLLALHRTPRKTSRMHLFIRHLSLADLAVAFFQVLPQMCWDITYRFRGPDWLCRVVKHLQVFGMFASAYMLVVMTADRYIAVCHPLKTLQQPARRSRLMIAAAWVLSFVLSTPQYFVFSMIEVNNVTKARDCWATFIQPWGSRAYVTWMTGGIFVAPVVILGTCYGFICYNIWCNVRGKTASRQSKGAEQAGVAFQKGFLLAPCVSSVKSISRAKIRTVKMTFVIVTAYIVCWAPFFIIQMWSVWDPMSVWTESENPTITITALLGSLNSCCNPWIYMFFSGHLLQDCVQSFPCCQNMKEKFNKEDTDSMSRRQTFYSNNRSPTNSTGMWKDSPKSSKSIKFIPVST

[1] = target: T2, Vasopressin V1b receptor (Homo sapiens) (UniProt P47901); experiment: Antagonist activity at human vasopressin V1B receptor at 10 uM; format: functional; design: scale not given: the % may be the effect or the level left
T2 sequence (whole entry): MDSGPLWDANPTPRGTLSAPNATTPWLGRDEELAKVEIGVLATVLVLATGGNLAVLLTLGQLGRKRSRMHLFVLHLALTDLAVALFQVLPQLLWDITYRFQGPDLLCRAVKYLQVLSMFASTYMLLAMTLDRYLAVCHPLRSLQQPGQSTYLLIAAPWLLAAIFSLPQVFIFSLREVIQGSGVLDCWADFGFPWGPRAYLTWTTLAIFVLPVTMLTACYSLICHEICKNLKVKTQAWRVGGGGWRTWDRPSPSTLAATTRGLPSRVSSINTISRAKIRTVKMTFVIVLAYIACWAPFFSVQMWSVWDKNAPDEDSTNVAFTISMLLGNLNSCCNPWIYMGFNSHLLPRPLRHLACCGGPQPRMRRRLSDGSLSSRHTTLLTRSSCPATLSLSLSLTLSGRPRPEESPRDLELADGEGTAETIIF

[2] = target: Vasopressin V2 receptor (Homo sapiens) (UniProt P30518); experiment: Antagonist activity at human vasopressin V2 receptor at 10 uM; format: functional; design: scale not given: the % may be the effect or the level left
Vasopressin V2 receptor (Homo sapiens), sequence (P30518 whole entry): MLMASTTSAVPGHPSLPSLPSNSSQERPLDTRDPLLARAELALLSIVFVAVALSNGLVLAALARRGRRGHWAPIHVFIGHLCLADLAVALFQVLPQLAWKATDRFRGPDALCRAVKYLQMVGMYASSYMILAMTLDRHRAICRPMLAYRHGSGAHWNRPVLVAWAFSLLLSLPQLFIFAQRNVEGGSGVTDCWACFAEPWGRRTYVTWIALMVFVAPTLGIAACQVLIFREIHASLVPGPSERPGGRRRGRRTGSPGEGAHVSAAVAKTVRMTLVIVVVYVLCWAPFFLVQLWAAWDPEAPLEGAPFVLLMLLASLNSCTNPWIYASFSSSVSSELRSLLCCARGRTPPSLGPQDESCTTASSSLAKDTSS

SMILES | Ki (Oxytocin receptor) | Ki (Vasopressin V1a receptor) | Activity [1] | Activity [2]
CCN(C(=O)N1CC(Oc2cc(F)cc(F)c2C)C1)c1ccc(OC)nc1 | 36.7 nM | – | – | –
COc1ccc(N(C)C(=O)N2CC(Oc3cccc(F)c3C)C2)cn1 | 159 nM | > 4200 nM | – | –
COc1ccc(-n2c(C)nnc2N2CC(Oc3cccc(F)c3C)C2)cn1 | 19.7 nM | > 4200 nM | – | –
COc1ccc(N(C)C(=O)N2CC(Oc3ccc(F)cc3Cl)C2)cn1 | 67.2 nM | 779 nM | – | –
COc1ccc(N(C)C(=O)N2CC(Oc3cc(F)cc(F)c3C)C2)cn1 | 237 nM | > 4200 nM | – | –
COc1ccc(N(C)C(=O)N2CC(Oc3ccc(F)cc3C)C2)cn1 | 112 nM | 1300 nM | – | –
CCN(C(=O)N1CC(Oc2ccc(F)cc2Cl)C1)c1ccc(OC)nc1 | 48.4 nM | – | – | –
COc1ccc(-n2c(C)nnc2N2CC(Oc3cc(F)cc(F)c3C)C2)cn1 | 41.4 nM | > 4200 nM | – | –
CCN(C(=O)N1CC(Oc2cccc(F)c2C)C1)c1ccc(OC)nc1 | 13.9 nM | > 4200 nM | < 10% | < 10%
CCN(C(=O)N1CC(Oc2ccc(F)cc2C)C1)c1ccc(OC)nc1 | 43 nM | – | – | –
